Reference: a melting point compilation (Tetko et al.; mined from patent text by program, amines drawn as free bases though some values may be those of a salt)

`CCc1c(C(F)(F)F)nn(-c2ccc(S(N)(=O)=O)nc2)c1-c1ccc(-c2cncs2)c(F)c1` gave a melting point of 189 to 191 °C.
`CCN(Cc1cc(Br)ccc1NCc1ccccc1)c1ccc(C(N)=O)nn1` showed a melting point of 160 to 162 °C.
With `CNS(=O)(=O)c1cc(O)ccc1OC(=O)c1ccccc1` the melting point was 168 to 170 °C.
In the case of `CNC(=O)N(O)C(C)c1ccc(F)cc1F` (centres undefined), the melting point was 125 to 134 °C.
For `Cc1ccc2c(c1)N=C(N1CCN(C)CC1)c1cc(Br)cc3c1N2CC3`, the melting point was 187 to 189 °C.
Molecule `Cc1c(NC(=O)C(CSC(=O)c2ccccc2)Cc2ccccc2)cccc1C(=O)O` (centres undefined) has a melting point of 204 to 205 °C.
Molecule `COc1cc(C=S2C=CN=C2N)c([N+](=O)[O-])cc1OC` (centres undefined) has a melting point of 125 to 130 °C.
Molecule `Nc1ccc(F)c(Cl)c1F` has a melting point of 58 °C.
In the case of `COCCc1nc2c(N)nc3c(c2n1CCOCCNC(=O)c1ccccc1)CCCC3`, the melting point was 141 to 143 °C.
Molecule `CCOC(=O)C1CCC2(CCN(S(=O)(=O)c3ccc(C)cc3)c3ccccc3C2)C1O` (centres undefined) has a melting point of 139 to 140 °C.
In the case of `Cc1ccccc1Cc1cccnn1`, the melting point was 88 to 89 °C.
In the case of `CCN1c2ncccc2C(=O)N(C)c2ccc(-c3c[nH]c(C(N)=O)c3)nc21`, the melting point was 284 to 285 °C.
Molecule `CCCc1nc2c(N)ncc(Br)c2n1CCOCCNS(C)(=O)=O` has a melting point of 129 to 131 °C.
Work on `CCOC(=O)CC[C@H](NC(=O)c1ccc(NCc2cnc3nc(N)nc(N)c3c2)cc1)C(=O)OCC` yielded a melting point of 262 °C.
`CC(NC(=O)NO)c1ccc2cc(OCc3csc(-c4ccccc4)n3)ccc2c1` (single isomer, unassigned; (-)) showed a melting point of 171 to 173 °C.
`CCOC(=O)c1cn(CC)c2nc(OC)c(F)cc2c1=O` gave a melting point of 181 to 182 °C.
In the case of `Cc1c(I)c(=O)n(-c2cc(C(=O)OC(C)C)c(Cl)cc2F)c(=O)n1C`, the melting point was 147 to 150 °C.
Molecule `CCCCCCCCCCCCOc1ccc(CO)cc1` has a melting point of 66.5 to 67 °C.
For `COc1ccc(CC(C(=O)O)N(CCCNC(=O)OC(C)(C)C)C(=O)CBr)cc1` (centres undefined), the melting point was 79 to 81 °C.
For `Cc1cc2cnn(-c3ccccc3)c2nc1OCc1ncnn1C`, the melting point was 145 to 146 °C.
In the case of `CC(=O)N(N1C(=O)C(NC(=O)Nc2cccc(C)c2)CC(c2ccccc2)CC1c1ccccc1)C(C)(C)C` (single isomer, unassigned; (-)), the melting point was 140 to 150 °C.
`Cc1nc(-n2ccn(CCc3ccc(F)cc3)c2=O)sc1C(=O)NCc1cccnc1` showed a melting point of 160 to 162 °C.
Work on `CCCc1c(-c2ccc(C(=O)OC)cc2)oc2cc(NC(C)=O)ccc2c1=O` yielded a melting point of 244 °C.
In the case of `N#Cc1cc(C(F)(F)F)[nH]c1-c1ccccc1Cl`, the melting point was 151 to 152 °C.
With `Cc1noc2nc(-c3ccccc3)cc(Cl)c12` the melting point was 130 to 131 °C.
`CCCCNS(=O)(=O)c1ccc(N2CCC(NC[C@H](O)COc3cccc4[nH]c(=O)[nH]c34)CC2)cc1` showed a melting point of 69 to 75 °C.
With `Oc1ccc(-c2ncc3ncc(Cl)cc3n2)cc1` the melting point was 231 to 232 °C.
With `CC1CN(C(=O)c2ccc(Cl)cc2Cl)c2ccc(Cl)cc2C1=O` (centres undefined) the melting point was 157 to 159 °C.
`CC(=O)OCCn1ccc(=O)c(OCc2ccccc2)c1C(OC(C)=O)c1ccc(F)cc1` (centres undefined) showed a melting point of 118 to 119 °C.
With `Cc1ccc(S(=O)(=O)OCC2CCc3nc(C)sc3C2)cc1` (centres undefined) the melting point was 70 to 71 °C.
In the case of `Cc1ccc(OC2CCC3C4CC=C5CC(O[Si](C)(C)C(C)(C)C)CCC5(C)C4CCC23C)cc1` (centres undefined), the melting point was 137 to 138 °C.
In the case of `Cn1ncc(C(=O)N2CC3(COC3)C2)c1C(=O)Nc1ccn2nc(N3CCOCC3)nc2c1`, the melting point was > 300 °C.
In the case of `O=C(NCCc1ccccc1Cl)C1CCCCC1`, the melting point was 93.5 to 93.9 °C.
For `CCOc1ccc(NCc2ccc(N(C)C)cc2)cc1`, the melting point was 98 to 99 °C.
`COc1cc(C(=O)NC=NC(=O)ON(c2ccc(C)c(NC(=O)c3ccc(OCc4ccccc4)cc3)c2)C(C)(C)C)cc(OC)c1OC` showed a melting point of 94 °C.
Molecule `CCCCCCCCCCCCn1nnc(N(C(=O)Nc2ccc(F)cc2F)c2ccccc2)n1` has a melting point of 55 to 57 °C.
With `CN(C)S(=O)(=O)c1cc(-c2csc(=Nc3ccccc3)n2C2CC2)ccc1Cl` the melting point was 156 to 159 °C.
In the case of `O=C(Cc1ccccc1)NCC(O)c1ccccc1` (centres undefined), the melting point was 97 to 99 °C.
`CN(C1=CC(=O)CC1)[C@@H]1c2cc(C#N)ccc2OC(C)(C)[C@H]1O` (relative stereo) gave a melting point of 271 to 274 °C.
`CN1Cc2c(C#N)ncn2-c2ccccc2C1=O` showed a melting point of 184 to 186 °C.
With `CC(C)n1nc(-c2nc(C(N)=S)c(N)nc2-c2ccccc2)ccc1=O` the melting point was > 250 °C.
`CC(=Nc1ccc2c(c1)C(=O)c1ccc(N=C(C)N3CCC(C)CC3)cc1C2=O)N1CCC(C)CC1` gave a melting point of 200 to 202 °C.
Work on `CC(=O)Nc1c([N+](=O)[O-])cc(C)c(OC(F)F)c1C` yielded a melting point of 184 to 185 °C.
`CCC(OCC(F)(F)F)c1ccc(Cl)c2nc3n(c12)CCCN3c1ccc(Cl)cc1Cl` (centres undefined) gave a melting point of 146 to 148 °C.
`CCC(O)(C(N)=O)c1cc(C(F)(F)F)cc(C(F)(F)F)c1` (centres undefined) gave a melting point of 128 to 129 °C.
`FC(F)(F)Oc1ccc(-c2ccc(C=CCBr)cc2)cc1` showed a melting point of 121 to 123 °C.
In the case of `N#CC(C(=O)C(F)(F)C(F)(F)F)c1ccccc1` (centres undefined), the melting point was 94 to 95 °C.
Molecule `OCCSC(=S)Nc1ccc(Cl)cn1` has a melting point of 108 °C.
`Cc1nc(-c2ccccc2)ncc1C(=O)c1ccccc1` gave a melting point of 68 to 72 °C.
In the case of `Cc1nc(C(C)(O)c2ccsc2)sc1CCO` (centres undefined), the melting point was 127 to 129 °C.
Work on `CS(=O)(=O)c1ccc(-c2n[nH]c(=O)cc2-c2ccc(Cl)cc2)cc1` yielded a melting point of 254 to 255 °C.
With `CCOC(=O)c1c[nH]c2cc(-c3cc(C)nc(C)c3)c(F)cc2c1=O` the melting point was > 300 °C.
Molecule `FC(F)(F)c1cccc(CCc2nnc(-c3ccc4nccn4c3)o2)c1` has a melting point of 152 to 153 °C.
`CCOC(=O)CC[C@H](NC(=O)c1csc(CCCc2coc3nc(N)nc(N)c23)c1)C(=O)OCC` showed a melting point of 79 to 80 °C.
Molecule `O=S(=O)(c1ccc(Nc2nccc(Nc3ccc(F)cc3)n2)cc1)N(CCN1CCCC1)[C@H]1CC[C@H](O)CC1` has a melting point of 135 °C.
Work on `COc1cc2c(cc1S(=O)(=O)c1ccc(OCc3ccc(Cl)cc3)cc1)CCN(C)CC2` yielded a melting point of 120 to 122 °C.
With `O=[N+]([O-])c1ccc2c(c1)S(=O)(=O)NCN2CCF` the melting point was 165 to 166 °C.
Molecule `Cc1nc(Br)cnc1N` has a melting point of 51 to 52 °C.
For `O=C(CC1CCN(Cc2ccccc2)CC1)c1ccc(O)cc1`, the melting point was 197 to 198 °C.
For `O=C1Nc2ccccc2C1=Cc1ccccn1`, the melting point was 204 to 205 °C.
For `CC(=O)Nc1cnn2c1-c1ccccc1N(C(C)=O)C2C` (centres undefined), the melting point was 218 to 220 °C.
For `CCC(Oc1cc(C)cc(C)c1)C(=O)NCc1ccccc1` (centres undefined), the melting point was 93 to 94 °C.
In the case of `CC(C)(C)NS(=O)(=O)c1cc2c(s1)S(=O)(=O)NCC2=O`, the melting point was 170 to 172 °C.
Molecule `Cc1ccc(S(=O)(=O)N[C@@H](C)C(=O)N[C@@H](Cc2ccccc2)C(=O)OCc2ccccc2)cc1` has a melting point of 109 to 110 °C.
Molecule `O=c1[nH]c2ccc(F)cc2c(=O)n1CCCN1CC=C(c2ccc(Cl)cc2)CC1` has a melting point of 192 to 193 °C.
For `CCOP(=O)(OCC)C(CC(C(=O)Nc1ccccc1)C(=O)c1ccccc1)P(=O)(OCC)OCC` (centres undefined), the melting point was 104 to 105 °C.
`O=C1CCC(C(=O)N2CCC(Cc3ccccc3)CC2)N1` (centres undefined) gave a melting point of 160 to 161 °C.
For `O=S(=O)(c1ccc(Cl)cc1)N1CCCC1c1cccc(F)c1` (racemic), the melting point was 126 °C.
`O=C(Cc1ccccc1C(=O)O)Nc1cccc(/C=C/c2nc(C3CCCCCC3)cs2)c1` showed a melting point of 189 to 190 °C.
`CCCCCCCCOc1ccc(-c2ncc(O)cn2)c(F)c1F` showed a melting point of 84 to 85 °C.
For `CC1(C)C(=O)C(c2ccccc2)=C1c1ccc(S(C)(=O)=O)cc1`, the melting point was 145 to 146 °C.
Work on `Nc1c(Br)cc(Br)cc1S(N)(=O)=O` yielded a melting point of 165 to 169 °C.
In the case of `CC(C)(C)OC(=O)n1cc(C(=O)C2CSC(c3cccnc3)N2)c2cccc(OCc3ccccc3)c21` (centres undefined), the melting point was 91 to 96 °C.
`O=C(COc1ccc2ccc(=O)oc2c1)c1ccccc1` gave a melting point of 163 to 165 °C.
Work on `CC(C)(C)c1ccc(Oc2ccc(NC(=O)c3ccccc3C(c3ccc(O)cc3)c3ccc(O)cc3)cn2)cc1` yielded a melting point of 121 to 125 °C.
`COC(=O)CCCc1cc2nc(C(F)(F)F)ccc2[nH]1` gave a melting point of 137 °C.
`CCCc1nc(Cl)c(-c2ccc(C)cc2)c(NS(=O)(=O)c2ccc(C(C)(C)C)cc2)n1` gave a melting point of 138 to 139 °C.
`CC(=O)N1CCc2cc(CC(C)Br)cc([N+](=O)[O-])c21` (centres undefined) gave a melting point of 119 to 120 °C.
In the case of `CC(C)(C)c1cc(N2CCCC2=O)cc(C(C)(C)C)c1O`, the melting point was 173 to 175 °C.
`CN(CC=C(F)C(F)(F)C(F)(F)C(F)(F)F)CCCCCC1Cc2cc(O)ccc2C2C(F)CC3(C)C(O)CCC3C12` (centres undefined) showed a melting point of 130 °C.
In the case of `Cc1cccc(NC(=O)C2=C(O)c3ccc4ccccc4c3S(=O)(=O)N2C)c1`, the melting point was 240 to 242 °C.
In the case of `C=CCNC(=O)N1CC(OCc2ccc(F)cc2)C1`, the melting point was 97 to 99 °C.
`CCCCc1c(C(=O)c2ccc(O)cc2)n(C)c2ccc([N+](=O)[O-])cc12` showed a melting point of 172 °C.
Molecule `CC(=O)Oc1ccc2c(c1)Sc1cc(N(C)C)ccc1N2C(C)=O` has a melting point of 124 to 128 °C.
For `S=c1n(CNCc2ccc(Cl)cc2)nc(-c2ccncc2)n1-c1ccccc1`, the melting point was 222 to 223 °C.
`CC(C)Cn1c(CNC(=O)OC(C)(C)C)c(-c2ccc(Cl)cc2)c2cc(/C=C/C(N)=O)ccc2c1=O` showed a melting point of 152 to 154 °C.
Molecule `Cc1ccc(C(=O)NC(C)C)c(Nc2ccc3cn[nH]c3c2)n1` has a melting point of 212 to 214 °C.
In the case of `COc1cn(-c2cc3c(cc2F)OC(F)(F)O3)nc(-c2ccnn2-c2ccccc2)c1=O`, the melting point was 200 to 202 °C.
`O=S(=O)(c1ccc2c(Cl)cnc(Cl)c2c1)N1CCC[C@@H]1CO` showed a melting point of 168 °C.
`CCOC(=O)c1ccc(-c2ccc(OCCCCCCCCCCCCOC(C)=O)cc2)cc1` gave a melting point of 80.1 to 81.5 °C.
With `CCCCCCCCCCC[C@@H](O)CCO` the melting point was 59 to 60 °C.
Work on `COc1ccc(CCNS(=O)(=O)Cc2ccc3[nH]cc(CCN)c3c2)cc1` yielded a melting point of 128 to 129 °C.
`Cc1ccc(C)c(C2CC(=O)C(C(=O)c3ccccc3)=C(O)C2)c1` (centres undefined) gave a melting point of 182 to 185 °C.
Work on `O=C(O)[C@@H]1CCCC[C@H]1C(=O)CCS` (relative stereo) yielded a melting point of 71 to 74 °C.
